Test results as given in patent publication US20230285504A1, “INHIBITION OF REPERFUSION INJURY WITH A PSD-95 INHIBITOR” (NONO INC., priority 2020, published 2023).
No end group written: not given here.

What was measured:
[1] = system: transient middle cerebral artery occlusion (tMCAO); test: Dose-response study of nerinetide in transient middle cerebral artery occlusion; assay type: in vivo; conditions: rat tMCAo
Protocol: FIGS. 9A-B: Nerinetide is effective over a dosage range of at least 0.025-25 mg/kg in a rat tMCAo model in (A) reducing infarction size and (B) reducing neurologic deficit.
The cleavage of full-length nerinetide by high dose alteplase was incomplete, raising the possibility that some active drug could still remain to achieve neuroprotection. This was supported in rats by a dose-response study of nerinetide in a model of transient middle cerebral artery occlusion (tMCAO). Nerinetide and lodoxamide was administered to rats intravenously as a bolus injection, 60 minutes after tMCAo. […] Bars in A and represent mean±SD, with all individual data points plotted. […] Vehicle: PBS alone. Scrambled: ADA peptide incapable of binding PSD-95. Doses as low as 0.25 mg/kg produced a significant reduction in infarct volume (P=0.01) and an improvement in neurological function. Doses as low as 0.025 mg/kg were also effective. Doses up to at least 25 mg/kg were also effective with the highest efficacy being at about 15 mg/kg. The observed wide therapeutic range was attributable to nerinetide, and not to the mast cell degranulation inhibitor lodoxamide, which was present in all solutions to avoid potential hypotension due to histamine release.

[2] = target: protein-protein interactions of PSD-95 with neuronal nitric oxide synthase (nNOS) (Homo sapiens, UniProt P78352); conditions: read-out: IC50 perturbing PSD-95 interaction with nNOS; cited from earlier work
Sequence of protein-protein interactions of PSD-95 with neuronal nitric oxide synthase (nNOS) (P78352 whole entry): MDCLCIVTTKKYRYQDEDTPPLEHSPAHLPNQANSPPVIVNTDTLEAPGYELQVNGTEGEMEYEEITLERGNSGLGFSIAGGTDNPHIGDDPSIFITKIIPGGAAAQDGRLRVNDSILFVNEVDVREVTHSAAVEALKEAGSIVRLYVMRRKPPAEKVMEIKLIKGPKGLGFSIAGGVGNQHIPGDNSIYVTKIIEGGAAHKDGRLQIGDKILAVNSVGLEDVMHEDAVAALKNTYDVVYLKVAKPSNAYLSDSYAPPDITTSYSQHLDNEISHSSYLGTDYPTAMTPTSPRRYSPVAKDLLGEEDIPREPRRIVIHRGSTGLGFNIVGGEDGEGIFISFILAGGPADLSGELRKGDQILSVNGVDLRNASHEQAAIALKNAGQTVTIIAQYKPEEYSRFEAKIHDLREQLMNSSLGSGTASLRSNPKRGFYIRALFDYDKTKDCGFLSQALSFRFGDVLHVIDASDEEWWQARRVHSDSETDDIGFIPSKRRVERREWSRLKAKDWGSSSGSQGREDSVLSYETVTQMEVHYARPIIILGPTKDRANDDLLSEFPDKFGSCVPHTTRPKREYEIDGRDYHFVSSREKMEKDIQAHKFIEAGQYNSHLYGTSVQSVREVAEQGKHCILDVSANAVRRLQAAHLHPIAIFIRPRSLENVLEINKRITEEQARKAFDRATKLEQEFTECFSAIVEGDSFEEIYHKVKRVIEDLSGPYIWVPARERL

[3] = intravenous over 10 minutes; cited from earlier work
[4] = In-vitro effect of alteplase (rt-PA) on nerinetide content in rat plasma (HPLC); assay type: in vitro ADME; conditions: 65 ug/ml nerinetide, 37 C, alteplase added over 60 minutes (22.5 ug/ml, 3 times and 6 times)
Protocol: (§1) A. LC/MS spectrum of nerinetide after incubation with plasmin in PBS. 10 uL aliquots of nerinetide (18 mg/mL) and plasmin (1 mg/mL) were incubated in 500 uL tubes of phosphate-buffered saline at 37 C for 5 min and the reaction stopped by cooling to −80C until tested. The various peaks correspond to the indicated fragments. Insert: Predicted trypsin cleavage sites and actual cleavage sites. (B,C) In-vitro effect of rt-PA on nerinetide content in rat (B) and human (C) plasma. Nerinetide was spiked into the plasma samples at t=0 at a concentration of 65 ug/ml, whereas alteplase (rt-PA) was administered as a 60 min infusion at the indicated concentration (D, E) In-vivo effect of the simultaneous administration of nerinetide and rt-PA on Cmax (D) and AUC (E) in the rat. The nerinetide bolus and alteplase (60 min infusion) were started simultaneously through two separate intravenous lines. Symbols represent mean±SD.
The concentration of 65 ug/ml of nerinetide represents the theoretical peak concentration in a 75 kg person receiving 2.6 mg/kg dose as a bolus. Alteplase was added over 60 minutes to simulate the clinical dosing approach.

[5] = target: second PDZ domain of PSD-95 protein (Homo sapiens, UniProt P78352); conditions: read-out: EC50 binding to second PDZ domain of PSD-95; cited from earlier work
Sequence of second PDZ domain of PSD-95 protein (P78352 160-246 limits assumed): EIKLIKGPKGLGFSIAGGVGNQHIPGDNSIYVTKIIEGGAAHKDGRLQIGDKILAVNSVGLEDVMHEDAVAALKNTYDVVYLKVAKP

[6] = Pharmacokinetics of nerinetide in rats with simultaneous alteplase; assay type: in vivo; conditions: rat
Protocol: as §1
Since the effect of nerinetide in the ESCAPE-NA1 trial was negated by alteplase, we next evaluated the effects of alteplase on pharmacokinetics (PK) of nerinetide in rats. Alteplase was administered at 0.9 mg/kg (human dose) and at 5.4 mg/kg (6 times the human dose) in an infusion that simulated the clinical protocol (10% bolus followed by a 60 min infusion of the remainder). Nerinetide was administered as an intravenous bolus at the start of the alteplase infusion at 7.6 mg/kg.

[7] = system: patients with acute ischemic stroke (AIS) due to a large vessel arterial occlusion selected for endovascular thrombectomy; conditions: published primary trial result; cited from earlier work
[8] = nerinetide 7.6 mg/kg iv bolus with alteplase 0.9 mg/kg (human dose)
[9] = nerinetide 7.6 mg/kg iv bolus with alteplase 5.4 mg/kg started simultaneously

Question: With YGRKKRRQRRRKLSSIESDV [nerinetide] as the sequence, how does the “dose of highest efficacy” value ([1]; 24 hours) read?
Answer: about 15 mg/kg

Question: And the “lowest dose also effective” value ([1]; 24 hours, doses as low as)?
Answer: 0.025 mg/kg

Question: What about the “upper dose also effective” value ([1]; 24 hours, doses up to at least) of the same sequence?
Answer: at least 25 mg/kg

Question: What about the “dose producing significant reduction in infarct volume (P=0.01) and improvement in neurological function” value ([1]; iv bolus with lodoxamide 60 minutes after tMCAo, 24 hours, doses as low as) of the same sequence?
Answer: 0.25 mg/kg

Question: And the “effective dosage range (reducing infarction size and neurologic deficit)” value ([1]; iv bolus with lodoxamide 60 minutes after tMCAo, read 24 hours)?
Answer: 0.025-25 mg/kg

Question: And the IC50 [2]?
Answer: ~0.2 µM

Question: And the plasma half-life [3]?
Answer: 5 to 10 min

Question: What about the “nerinetide content in rat plasma on addition of alteplase” value [4] of the same sequence?
Answer: reduced the nerinetide content in rat plasma in a concentration-dependent manner

Question: And the EC50 [5]?
Answer: ~0.007 µM

Question: What about the half-life ([6]; plasma, intravenous, 7.6 mg/kg, human equivalent concentrations (FIG. 6D)) of the same sequence?
Answer: 5 to 10 min

Question: What about the “change of AUC of nerinetide” value [6, 8] of the same sequence?
Answer: non-significant reduction

Question: What about the “change of Cmax of nerinetide” value [6, 8] of the same sequence?
Answer: non-significant reduction

Question: And the “lowering of mean AUC of nerinetide” value [6, 9]?
Answer: 44%

Question: And the “lowering of mean Cmax of nerinetide” value [6, 9]?
Answer: 49.5%

Question: What about the “outcome in ESCAPE-NA1, nerinetide group that did not receive alteplase” value [7] of the same sequence?
Answer: improved functional independence, reduced mortality, and reduced infarct volume

Question: What about the “outcome in ESCAPE-NA1, patients that received alteplase” value [7] of the same sequence?
Answer: did not benefit
